Where “and” joins values, the source holds several entries; their conditions need not be identical. Equal entries are not always repeated. Where two headings read alike, the source gives them in different places.
Tests used:
[1] = system: PC-9 cells; assay: CCK-8 antiproliferation assay, PC-9; conditions: for IC50: PC-9, 48 h, read-out: IC50 (μM) PC-9; for inhibition at 8 µM: PC-9, read-out: Inhibitory efficacy, PC-9, 8uM, single repeats (Repeat 1-3), given as fraction; for inhibition at 16 µM: PC-9, read-out: Inhibitory efficacy, PC-9, 16uM, single repeats (Repeat 1-3), given as fraction; for Inhibitory efficacy: single repeats (Repeat 1-3), given as fraction
[2] = system: H1975 cells; assay: CCK-8 antiproliferation assay, H1975; conditions: for Inhibitory efficacy: H1975 cells; for IC50: NCI-H1975, 48 h, read-out: IC50 (μM) H1975, CCK-8, 48 h, average ± SD of three independent experiments
[3] = system: A549 cells; assay: CCK-8 antiproliferation assay, A549; conditions: for Inhibitory efficacy: A549 cells; for IC50: A549, 48 h, read-out: IC50 (μM) A549, CCK-8, 48 h, average ± SD of three independent experiments
Protocol: The compounds were dissolved in DMSO to make a 20 μM stock solution and diluted to the concentration of working solutions with complete growth medium before administration.
Cells were seeded in 96-well plates: 3,000–5,000 cells/well in 100 ul. One day after seeding, the test compounds at concentration between 1.0 and 16.0 μ M or 0.1% DMSO (as control) were added to cells in triplicate. 48 h later, CCK-8 was added and incubated the plate for 1–4 h in the incubator. The absorbance at 450 nm were measured using a microplate reader (Bio-Tek).

[4] = molecular target: wild-type EGFR (Homo sapiens, UniProt P00533); assay: EGFR kinase assay (ELISA); conditions: for inhibition at 100 fM: concentration 0.0001 nM (reference for normalisation); for inhibition at 100 fM / inhibition at 30 pM / Inhibition / inhibition at 0.0003 µM / inhibition at 0.003 µM / inhibition at 0.03 µM / inhibition at 0.3 µM / inhibition at 3 µM / inhibition at 30 µM: one value per replicate column; for A450: raw ELISA absorbance; for IC50: ELISA, 3 μmol/L ATP
[5] = system: H460 cells; assay: CCK-8 antiproliferation assay, H460; conditions: for Inhibitory efficacy: H460 cells; for IC50: NCI-H460, 48 h, read-out: IC50 (μM) H460, CCK-8, 48 h, average ± SD of three independent experiments
[6] = 1uM, given as fraction, Repeat 1-3
[7] = 2uM, given as fraction, Repeat 1-3
[8] = 4uM, given as fraction, Repeat 1-3
[9] = 8uM, given as fraction, Repeat 1-3
[10] = 16uM, given as fraction, Repeat 1-3
[11] = Homo sapiens, A549, read-out: Inhibitory efficacy, A549 cells, 1uM, given as fraction, Repeat 1-3
[12] = Homo sapiens, A549, read-out: Inhibitory efficacy, A549 cells, 2uM, given as fraction, Repeat 1-3
[13] = Homo sapiens, A549, read-out: Inhibitory efficacy, A549 cells, 4uM, given as fraction, Repeat 1-3
[14] = Homo sapiens, A549, read-out: Inhibitory efficacy, A549 cells, 16uM, given as fraction, Repeat 1-3
[15] = concentration 0.3 nM, 0.0003 µM
[16] = Homo sapiens, NCI-H460, read-out: Inhibitory efficacy, H460 cells, 2uM, given as fraction, Repeat 1-3
[17] = Homo sapiens, NCI-H460, read-out: Inhibitory efficacy, H460 cells, 16uM, given as fraction, Repeat 1-3

Chain of wild-type EGFR (P00533 25-1210): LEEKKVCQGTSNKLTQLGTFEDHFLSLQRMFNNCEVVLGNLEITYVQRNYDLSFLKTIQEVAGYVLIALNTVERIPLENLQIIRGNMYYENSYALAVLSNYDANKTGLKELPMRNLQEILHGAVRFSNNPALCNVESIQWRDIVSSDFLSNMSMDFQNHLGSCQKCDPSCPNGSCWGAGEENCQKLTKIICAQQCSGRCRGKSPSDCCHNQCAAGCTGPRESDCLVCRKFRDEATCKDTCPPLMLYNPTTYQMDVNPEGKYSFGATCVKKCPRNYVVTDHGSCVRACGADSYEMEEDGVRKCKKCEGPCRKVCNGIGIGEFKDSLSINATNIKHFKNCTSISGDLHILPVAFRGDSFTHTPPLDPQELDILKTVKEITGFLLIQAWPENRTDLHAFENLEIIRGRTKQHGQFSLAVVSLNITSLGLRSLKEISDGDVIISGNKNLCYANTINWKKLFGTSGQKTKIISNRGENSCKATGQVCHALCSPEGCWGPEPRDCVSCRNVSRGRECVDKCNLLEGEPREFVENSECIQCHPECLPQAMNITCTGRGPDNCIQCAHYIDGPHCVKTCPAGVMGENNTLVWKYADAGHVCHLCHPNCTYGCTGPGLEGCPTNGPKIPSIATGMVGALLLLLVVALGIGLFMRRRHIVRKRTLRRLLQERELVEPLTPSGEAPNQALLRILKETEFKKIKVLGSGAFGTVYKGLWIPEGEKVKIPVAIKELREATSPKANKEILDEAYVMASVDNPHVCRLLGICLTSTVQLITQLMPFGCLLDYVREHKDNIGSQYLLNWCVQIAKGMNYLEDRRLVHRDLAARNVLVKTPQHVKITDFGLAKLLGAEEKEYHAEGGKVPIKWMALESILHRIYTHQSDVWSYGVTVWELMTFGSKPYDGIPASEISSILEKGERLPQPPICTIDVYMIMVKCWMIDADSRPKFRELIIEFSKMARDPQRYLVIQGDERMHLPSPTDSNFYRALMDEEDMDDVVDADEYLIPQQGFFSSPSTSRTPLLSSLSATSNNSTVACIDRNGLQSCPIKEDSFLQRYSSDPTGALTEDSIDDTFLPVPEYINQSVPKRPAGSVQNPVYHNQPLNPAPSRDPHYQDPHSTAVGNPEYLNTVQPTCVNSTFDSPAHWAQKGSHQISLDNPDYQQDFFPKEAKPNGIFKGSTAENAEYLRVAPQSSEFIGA

## COCCOc1cc2ncnc(Nc3cccc(-c4cn(-c5ccc(C)cc5O)nn4)c3)c2cc1OCCOC [e18, 2-(4-{3-[6,7-Bis-(2-methoxy-ethoxy)-quinazolin-4-ylamino]-phenyl}-[1,2,3]triazol-1-yl)-5-methyl-phenol]
[1]; Homo sapiens
  IC50: 15.2 ± 0.75 µM
  inhibition at 8 µM: 25.2%
  inhibition at 16 µM: 48.5%
[1]; PC-9, 8uM, 8 µM
  Inhibitory efficacy: 0.3051 and 0.2654
[1]; PC-9, 16uM, 16 µM
  Inhibitory efficacy: 0.5238 and 0.4787
[2]; [6]
  Inhibitory efficacy: 0.2067 and 0.1552
[2]; [7]
  Inhibitory efficacy: 0.2381 and 0.2095
[2]; [8]
  Inhibitory efficacy: 0.3038 and 0.341
[2]; [9]
  Inhibitory efficacy: 0.4524 and 0.4681
[2]; [10]
  Inhibitory efficacy: 0.6095 and 0.6024
[2]; Homo sapiens
  IC50: 10 ± 0.69 µM
[2]; Homo sapiens, NCI-H1975, read-out: Inhibitory efficacy, H1975 cells, 1uM, given as fraction, Repeat 1-3
  inhibition at 1 µM: 16.5%
[2]; Homo sapiens, NCI-H1975, read-out: Inhibitory efficacy, H1975 cells, 2uM, given as fraction, Repeat 1-3
  inhibition at 2 µM: 26.2%
[2]; Homo sapiens, NCI-H1975, read-out: Inhibitory efficacy, H1975 cells, 4uM, given as fraction, Repeat 1-3
  inhibition at 4 µM: 33.4%
[2]; Homo sapiens, NCI-H1975, read-out: Inhibitory efficacy, H1975 cells, 8uM, given as fraction, Repeat 1-3
  inhibition at 8 µM: 46.7%
[2]; Homo sapiens, NCI-H1975, read-out: Inhibitory efficacy, H1975 cells, 16uM, given as fraction, Repeat 1-3
  inhibition at 16 µM: 55.4%
[3]; [6]
  Inhibitory efficacy: 0.3234 and 0.3188
[3]; [7]
  Inhibitory efficacy: 0.4627 and 0.499
[3]; [8]
  Inhibitory efficacy: 0.5875 and 0.5347
[3]; [9]
  Inhibitory efficacy: 0.7578 and 0.7459
[3]; [10]
  Inhibitory efficacy: 0.8733 and 0.8713
[3]; Homo sapiens
  IC50: 2.53 ± 0.2 µM
[3]; [11]
  inhibition at 1 µM: 24.6%
[3]; [12]
  inhibition at 2 µM: 37.2%
[3]; [13]
  inhibition at 4 µM: 66.7%
[3]; Homo sapiens, A549, read-out: Inhibitory efficacy, A549 cells, 8uM, given as fraction, Repeat 1-3
  inhibition at 8 µM: 73.2%
[3]; [14]
  inhibition at 16 µM: 88.9%
other
  melting point: 100 to 103 °C
[4]
  inhibition at 100 fM: 0%
[4]; concentration 0.03 nM
  inhibition at 30 pM: 5.9%
  A450: 0.841 and 0.754
[4]; concentration 0.03 nM, 3e-05 µM
  Inhibition: 7.547
[4]; concentration 0.3 nM
  inhibition at 0.0003 µM: 9.63%
  A450: 0.817 and 0.738
[4]; [15]
  Inhibition: 10.2916
[4]; concentration 3 nM
  inhibition at 0.003 µM: 16.9%
  A450: 0.77 and 0.724
[4]; concentration 3 nM, 0.003 µM
  Inhibition: 12.693
[4]; concentration 30 nM
  inhibition at 0.03 µM: 21.1%
  A450: 0.743 and 0.721
[4]; concentration 30 nM, 0.03 µM
  Inhibition: 13.2075
[4]; concentration 300 nM
  inhibition at 0.3 µM: 25.3%
  A450: 0.716 and 0.698
[4]; concentration 300 nM, 0.3 µM
  Inhibition: 17.1527
[4]; concentration 3000 nM
  inhibition at 3 µM: 26.1%
  A450: 0.711 and 0.668
[4]; concentration 3000 nM, 3 µM
  Inhibition: 22.2985
[4]; concentration 30000 nM
  inhibition at 30 µM: 68.9%
  A450: 0.435 and 0.395
[4]; concentration 30000 nM, 30 µM
  Inhibition: 69.1252
[4]; concentration 0.0001 nM
  A450: 0.879 and 0.798
[4]; read-out: IC50 (μM) EGFR
  IC50: 12.4 µM
[5]; [6]
  Inhibitory efficacy: 0.2332 and 0.2742
[5]; [7]
  Inhibitory efficacy: 0.4443 and 0.3282
[5]; [8]
  Inhibitory efficacy: 0.5163 and 0.5814
[5]; [9]
  Inhibitory efficacy: 0.5774 and 0.6654
[5]; [10]
  Inhibitory efficacy: 0.7445 and 0.6414
[5]; Homo sapiens
  IC50: 4.3 ± 0.62 µM
[5]; Homo sapiens, NCI-H460, read-out: Inhibitory efficacy, H460 cells, 1uM, given as fraction, Repeat 1-3
  inhibition at 1 µM: 17.1%
[5]; [16]
  inhibition at 2 µM: 27.5%
[5]; Homo sapiens, NCI-H460, read-out: Inhibitory efficacy, H460 cells, 4uM, given as fraction, Repeat 1-3
  inhibition at 4 µM: 55.5%
[5]; Homo sapiens, NCI-H460, read-out: Inhibitory efficacy, H460 cells, 8uM, given as fraction, Repeat 1-3
  inhibition at 8 µM: 55%
[5]; [17]
  inhibition at 16 µM: 72.3%

## COCCOc1cc2ncnc(Nc3cccc(-c4cn(-c5ccc(OC)c(OC)c5)nn4)c3)c2cc1OCCOC [e19, N-(3-(1-(3,4-dimethoxyphenyl)-1H-1,2,3-triazol-4-yl)phenyl)-6,7-bis(2-methoxyethoxy)quinazolin-4-amine]
[1]; Homo sapiens
  IC50: 23.5 ± 10.2 µM
  inhibition at 8 µM: 35.7%
  inhibition at 16 µM: 49.7%
[1]; Homo sapiens, PC-9, read-out: Inhibitory efficacy, PC-9, 1uM, single repeats (Repeat 1-3), given as fraction
  inhibition at 1 µM: 21.9%
[1]; Homo sapiens, PC-9, read-out: Inhibitory efficacy, PC-9, 2uM, single repeats (Repeat 1-3), given as fraction
  inhibition at 2 µM: 32.9%
[1]; PC-9, 1uM, 1 µM
  Inhibitory efficacy: 0.1694 and 0.3158
[1]; PC-9, 2uM, 2 µM
  Inhibitory efficacy: 0.2911 and 0.3553
[1]; PC-9, 4uM, 4 µM
  Inhibitory efficacy: 0.4984 and 0.2516 and 0.3668
[1]; PC-9, 8uM, 8 µM
  Inhibitory efficacy: 0.4737 and 0.4424
[1]; PC-9, 16uM, 16 µM
  Inhibitory efficacy: 0.4062 and 0.4457
[2]; Homo sapiens
  IC50: > 100 µM
[3]; [6]
  Inhibitory efficacy: 0.1948 and 0.1677
[3]; [7]
  Inhibitory efficacy: 0.2727 and 0.2237
[3]; [8]
  Inhibitory efficacy: 0.2792 and 0.2418
[3]; [10]
  Inhibitory efficacy: 0.2527 and 0.2605
[3]; Homo sapiens
  IC50: > 100 µM
[3]; [11]
  inhibition at 1 µM: 21.2%
[3]; [12]
  inhibition at 2 µM: 23.7%
[3]; [13]
  inhibition at 4 µM: 19.7%
[3]; [14]
  inhibition at 16 µM: 26.2%
other
  melting point: 106 to 109 °C
[4]; IC50 (μM) EGFR
  IC50: 28.1 µM
[4]
  inhibition at 100 fM: 0%
[4]; concentration 0.03 nM
  inhibition at 30 pM: 0%
  A450: 0.772 and 0.745
[4]; concentration 0.3 nM
  inhibition at 0.0003 µM: 1.06%
  A450: 0.766 and 0.74
[4]; [15]
  Inhibition: 0.9259
[4]; concentration 3 nM
  inhibition at 0.003 µM: 2.12%
  A450: 0.76 and 0.727
[4]; concentration 3 nM, 0.003 µM
  Inhibition: 3.333
[4]; concentration 30 nM
  inhibition at 0.03 µM: 6.35%
  A450: 0.736 and 0.706
[4]; concentration 30 nM, 0.03 µM
  Inhibition: 7.222
[4]; concentration 300 nM
  inhibition at 0.3 µM: 6.7%
  A450: 0.734 and 0.689
[4]; concentration 300 nM, 0.3 µM
  Inhibition: 10.3704
[4]; concentration 3000 nM
  inhibition at 3 µM: 8.29%
  A450: 0.725 and 0.661
[4]; concentration 3000 nM, 3 µM
  Inhibition: 15.5556
[4]; concentration 30000 nM
  inhibition at 30 µM: 52.7%
  A450: 0.473 and 0.466
[4]; concentration 30000 nM, 30 µM
  Inhibition: 51.6667
[4]; concentration 0.0001 nM
  A450: 0.772 and 0.745
[5]; [7]
  Inhibitory efficacy: 0.2578 and 0.3115
[5]; [10]
  Inhibitory efficacy: 0.424 and 0.3358
[5]; Homo sapiens
  IC50: > 100 µM
[5]; [16]
  inhibition at 2 µM: 32.2%
[5]; [17]
  inhibition at 16 µM: 33.1%

Reference: publication PMC8776995 (Frontiers in Chemistry, 2022)
